Data published in US10750762B2, “Bio-based N-acetyl-L-methionine and use thereof” (CJ Cheiljedang Corporation, priority 2015, dated 2020).
Read-outs that look alike come from different tables or passages of the source. Each block holds one compound with its values, some of them ahead of it.

Experiments:
[1] = tested on: extracts of bovine small intestine; assay type: in vitro ADME; settings: Korean native cattle, 24 h
Protocol: The small intestine (40 m) of Korean native cattle (record number: KOR005078680400), slaughtered in Bucheon livestock products market of National Agricultural Cooperative Federation, was purchased. After slicing the small intestine to around 1 m, 20 mM sodium phosphate buffer (pH 7.4, 5 mL) was added in the sliced small intestine. Thereafter, while holding each ends of the small intestine, the small intestine was repeatedly waggled to help most of enzymes in the small intestine to be dissolved by the sodium phosphate buffer. […]
(§1) In order to remove protein in the sample which the reaction was over, perchloric acid (0.5%) was added therein and diluted 10-fold. Thereafter, the N-acetyl-L-methionine and L-methionine existing in the supernatant, which is separated by centrifugation at 14,000 for 10 minutes, were quantitatively analyzed (HPLC). Conversion rate (%) was calculated by comparing the molar concentrations (mM) between the N-acetyl-L-methionine prior to the reaction and the L-methionine after the reaction, in terms of the percentage (%) (the molecular weight of the N-acetyl-L-methionine: […]; and the molecular weight of the L-methionine: […]). […]

extracts of bovine liver = assay: Digestive degradation by extracts of liver; assay type: in vitro ADME; settings: Korean native cattle, 24 h
Protocol: The liver of Korean native cattle (record number: KOR005078680400), slaughtered in Bucheon livestock products market of National Agricultural Cooperative Federation, was purchased. After mixing liver tissues (0.125 g) with 20 mM sodium phosphate buffer (pH 7.4, 1 mL), glass beads (Sigma G1145) were filled in about 1/10 of a tube (2 mL). The cell tissues were disrupted using a beadbeater (MP™ FastPrep) for three times with each 20 seconds, and the resultant was centrifuged at 4° C. at 14,000 rpm for 10 minutes to obtain supernatants.
To confirmed the enzymatic activity of the extracts obtained from small intestine and liver, acylase I (sigma A3010) extracted from pig kidney was used. […]
as §1

ruminal microflora = settings: male, Holstein, cattle, 2 mg/mL
Protocol: One Holstein steer (weighing around 630 kg to 650 kg) equipped with ruminal cannula was provided for an experimental purpose, and the Holstein steer was bred by feeding the commercial feed (Milkgen™, CJ CheilJedang) and rice straws twice a day (7:30 a.m., 3:[…].).
The collection of ruminal fluid was carried out at 10 a.m. on the experimental day. Contents in the rumen were removed through a cannula, and gastric fluid was extracted with gauze by squeezing the same. Thereafter, the extracted gastric fluid was placed in a vacuum flask, and bubbled with CO2. The vacuum flak containing the gastric fluid was then carried to a laboratory while blocking a penetration of oxygen. It took less than an hour to carry the ruminal fluid to the laboratory.
The ruminal fluid carried to the laboratory was filtered with two layers of gauze, and then it was used as anaerobic culture medium by mixing the same with a biomimetic solution of McDougall's buffer (Troelsen and Donna, 1966), which is commonly used in the in vitro rumen bypass test, in a ratio of 1:3.
A feed used in the experiment was the commercial feed (Milkgen™), a feed substantially used for cattle breeding, and the feed was also used as a basal diet. Further, the experimental samples were prepared by mixing the basal diet with a test material. The test material used in this experiment was N-acetyl-L-methionine, and this was used as an experimental group 1. The experimental group 1 was compared with the control group 1 composed of only the basal diet without the test material, and also compared with the control group 2 composed of the test material, L-methionine. The culture was carried out with three replications for each experimental group.
The basal diet and test material were mixed in a ratio of 4:1 (basic diet (0.4 g), test material (0.1 g); but only 0.5 g of basic diet in control group 1). The culture initiated when the mixed test material (0.5 g) was added in a culture bottle (125 mL), and then mixed it with the prepared anaerobic culture medium (50 mL), and placed in 40° C. incubator upon sealing of the same.
O2 free CO2 was sprayed during the entire process including dilution of the ruminal fluid until the initiation of the culture, so that the ruminal fluid was not exposed to oxygen. Therefore, the anaerobic condition was maintained.
The culture was finally carried out for 48 hours, and sampling of the culture medium was carried out a total of four times (0 h, 24 h, 36 h, 48 h) upon the initiation of the culture. At each sampling, the sample placed in the 40° C. incubator was moved from the incubator and opened its lid. Thereafter, a supernatant was obtained by centrifuging the culture medium at 4000 rpm for 10 minutes, and then the amount of the test material present in the supernatant was measured.
The bypass rate (%) is represented as a residual amount (%) at time-points of 24 hours, 36 hours, and 48 hours, based on the amount of a test material at the time-point of 0 hour (100%).

[2] = Milk production and composition on feeding N-acetyl-L-methionine; assay type: in vivo, dairy cows
Protocol: Based on the in vitro evaluation, the N-acetyl-L-methionine, for which high digestive degradation rate in the small intestine and bypass rate in the rumen had been observed, was subjected to verify its efficiency through a substantial evaluation with dairy cows. In order for this, the cows were divided into two separated groups, and the change in milk composition depending on presence or absence of the N-acetyl-L-methionine was analyzed during the evaluation. For this, eight dairy cows were divided into two groups so that each group consists of four cows, respectively. Additionally, the N-acetyl-L-methionine was added to the feed composition (Table 12) which are fed by the four cows in one group (30 g of N-acetyl-L-methionine by each cow per a day), and it was carried out for 84 days. • Group 1: Non-addition of N-acetyl-L-methionine • Group 2: Addition of N-acetyl-L-methionine

[3] = Weight gain effect on feeding N-acetyl-L-methionine; assay type: in vivo, beef steers
Source text: The weight gain effect of beef steers was verified through feeding N-acetyl-L-methionine. For the verification, 24 beef steers were divided into two groups so that each group consisted of 12 beef steers. […] In the group with the addition of N-acetyl-L-methionine, each beef steer was fed with the N-acetyl-L-methionine (30 g) per a day.

[4] = 30 g per cow per day in feed, 84 days
[5] = 30 g per steer per day, 90 days

L-methionine (mM) after the reaction [1]: 5.82 mM | L-methionine (mM) after the reaction (extracts of bovine liver): 6.36 mM
SMILES: CSCCC(NC(C)=O)C(=O)O (racemic) [N-acetyl-D,L-methionine, reference compound]

L-methionine (mM) after the reaction [1]: 10.9 mM | Rate of rumen bypass (%), Average (ruminal microflora; 0 h): 100% | Rate of rumen bypass (%), replicate 1 (ruminal microflora; 0 h): 100% | Rate of rumen bypass (%), replicate 2 (ruminal microflora; 0 h): 100% | Rate of rumen bypass (%), replicate 3 (ruminal microflora; 0 h): 100% | Rate of rumen bypass (%), Average (ruminal microflora; 24 h): 89.1% | Rate of rumen bypass (%), replicate 1 (ruminal microflora; 24 h): 87.5% | Rate of rumen bypass (%), replicate 2 (ruminal microflora; 24 h): 90.5% | Rate of rumen bypass (%), replicate 3 (ruminal microflora; 24 h): 89.4% | Rate of rumen bypass (%), Average (ruminal microflora; 36 h): 76.2% | Rate of rumen bypass (%), replicate 1 (ruminal microflora; 36 h): 72.5% | Rate of rumen bypass (%), replicate 2 (ruminal microflora; 36 h): 80.1% | Rate of rumen bypass (%), replicate 3 (ruminal microflora; 36 h): 76.0% | Rate of rumen bypass (%), Average (ruminal microflora; 48 h): 55.4% | Rate of rumen bypass (%), replicate 1 (ruminal microflora; 48 h): 52.6% | Rate of rumen bypass (%), replicate 2 (ruminal microflora; 48 h): 57.2% | Rate of rumen bypass (%), replicate 3 (ruminal microflora; 48 h): 56.5%
SMILES: CSCC[C@H](NC(C)=O)C(=O)O [N-acetyl-L-methionine]
Amount of production, 3.5% FCM (Fat-corrected milk) [2, 4]: 43.4 kg/day | Amount of production, ECM (Energy-corrected milk) [2, 4]: 42.9 kg/day | Feed efficiency, 3.5% FCM yield/DMI [2, 4]: 1.72 | Feed efficiency, ECM yield/DMI [2, 4]: 1.70 | Feed efficiency, Milk production/Feed intake (Milk yield/DMI) [2, 4]: 1.66 | Production of milk ingredients, Milk fat [2, 4]: 1.56 kg/day | Production of milk ingredients, Milk protein [2, 4]: 1.18 kg/day | Rate of milk ingredients, Milk fat [2, 4]: 3.70% | Rate of milk ingredients, Milk protein [2, 4]: 2.83% | 3.5% FCM production, rate of increase (%) ([2]; vs non-addition group): 7.4% | ECM production, rate of increase (%) ([2]; vs non-addition group): 6.7% | Feed efficiency 3.5% FCM yield/DMI, rate of increase (%) ([2]; vs non-addition group): 9.6% | Feed efficiency ECM yield/DMI, rate of increase (%) ([2]; vs non-addition group): 8.3% | Feed efficiency Milk yield/DMI, rate of increase (%) ([2]; vs non-addition group): 3.1% | Production of milk ingredients, Milk fat, rate of increase (%) ([2]; vs non-addition group): 12.2% | Production of milk ingredients, Milk protein, rate of increase (%) ([2]; vs non-addition group): 3.5% | Rate of milk ingredients, Milk fat, rate of increase (%) ([2]; vs non-addition group): 10.8% | Rate of milk ingredients, Milk protein, rate of increase (%) ([2]; vs non-addition group): 1.8% | Average daily weight gain [3, 5]: 1.48 kg/day | Weight of beef steer, 3 months after feeding [3, 5]: 382.1 kg | additional weight gain ([3]; in comparison with one without the N-acetyl-L-methionine, 90 days): 16.5 kg | Weight gain, rate of increase (%) ([3]; vs non-addition group): 14.2%

Rate of rumen bypass (%), Average (ruminal microflora; 0 h): 100% | Rate of rumen bypass (%), replicate 1 (ruminal microflora; 0 h): 100% | Rate of rumen bypass (%), replicate 2 (ruminal microflora; 0 h): 100% | Rate of rumen bypass (%), replicate 3 (ruminal microflora; 0 h): 100% | Rate of rumen bypass (%), Average (ruminal microflora; 24 h): 58.8% | Rate of rumen bypass (%), replicate 1 (ruminal microflora; 24 h): 51.2% | Rate of rumen bypass (%), replicate 2 (ruminal microflora; 24 h): 62.6% | Rate of rumen bypass (%), replicate 3 (ruminal microflora; 24 h): 62.7% | Rate of rumen bypass (%), Average (ruminal microflora; 36 h): 36.0% | Rate of rumen bypass (%), replicate 1 (ruminal microflora; 36 h): 29.4% | Rate of rumen bypass (%), replicate 2 (ruminal microflora; 36 h): 42.3% | Rate of rumen bypass (%), replicate 3 (ruminal microflora; 36 h): 36.2% | Rate of rumen bypass (%), Average (ruminal microflora; 48 h): 1.5% | Rate of rumen bypass (%), replicate 1 (ruminal microflora; 48 h): 1.9% | Rate of rumen bypass (%), replicate 2 (ruminal microflora; 48 h): 1.5% | Rate of rumen bypass (%), replicate 3 (ruminal microflora; 48 h): 0.9%
SMILES: CSCC[C@H](N)C(=O)O [L-methionine]
